Reference: patent US20060057669A1, “Inactive transcription factor tif-ia and uses thereof” (priority 2002, published 2006)

Key:
TIF-IA = assay: In vitro transcription assay of TIF-IA purified from treated HEK293T cells, in nuclear extracts from rapamycin-treated cells; type: biochemical; conditions: 1 hr; okadaic acid 1 μM or calyculin A 50 nM with rapamycin 20 nM
Description: Nuclear extracts from rapamycin-treated cells were supplemented with 30 and 90 ng of TIF-IA that was immunopurified from HEK293T cells co-expressing FLAG-tagged TIF-IA and either GST/myc-tagged wild-type S6K1 (lanes 2-5) or S6K1E389ANAC (lanes 6-9).
B) Transcriptional activity of TIF-IA mutants in vitro. TIF-IA was purified from cells that were mock-treated (lanes 2, 3), or treated for 1 hr with either okadaic acid (1 μM), rapamycin (20 nM), calyculin A (50 nM), or both okadaic acid or calyculin A and rapamycin as indicated. 30 ng (even numbers) and 90 ng (odd numbers except 1) of TIF-IA were assayed for their capability to restore transcription of nuclear extracts from rapamycin-treated cells.
If S6K1 or S6K1-activated kinases were the only pathways that target TIF-IA and mediate mTOR-dependent regulation of Pol I transcription, then rapamycin should not inactivate TIF-IA if a rapamycin-resistant S6K1 mutant was co-expressed. This, however, was not the case.
Two mechanisms could be responsible for the decreased phosphorylation of S44 after rapamycin treatment, e.g., inhibition of the respective kinase or activation of a counteracting phosphatase. […] If PP2A dephosphorylates and thus inactivates TIF-IA, inhibition of PP2A should protect TIF-IA from inactivation by rapamycin. […]

Pol I transcription [1] = assay: Pol I reporter plasmid pMrl930-BH co-transfection in NIH3T3 cells, Northern blot; type: cell-based; conditions: 0.25, 0.5 or 1 μg expression vector
Description: (C) Phosphorylation by RSK is necessary and sufficient for enhancing TIF-IA activity in vivo. NIH3T3 cells were co-transfected with 3 μg pMrl930-BH and lor 2.5 μg of pMT2-HA-CA-RSK2 (lanes 2, 3). Transcripts from the reporter plasmid were monitored on Northern blots. An ethidium bromide stain of cellular 18S and 28S rRNA is shown below.
(C) Transcriptional activity of TIF-IAS44A in vivo. NIH3T3 cells were cotransfected with 2.5 μg Pol I reporter plasmid (pMrl930-BH) and 0.25, 0.5 or 1 μg of pcDNA3.1-TIF-IA (lanes 2-4), TIF-IAS44A (lanes 5-7). Transcripts from the reporter plasmid were monitored on Northern blots. The amount of cellular 18S and 28S rRNA is shown below.
NIH3T3, HEK293T and CLL39 cells were cultured in Dulbecco's modified Eagles medium (DMEM) supplemented with 10% fetal calf serum. Cells were transfected with 5 μg of DNA per 10^6 cells using the calcium phosphate DNA coprecipitation method. Total RNA was isolated after 48 h and analyzed on Northern blots as described (Voit et al., EMBO J. 18 (1999), 1891-1899). Cellular pre-rRNA levels were monitored by hybridization to antisense RNA complementary to the first 155 nucleotides of unprocessed 45S pre-RNA. Transcripts from the rDNA reporter plasmid were monitored by hybridization to a riboprobe that is complementary to pUC sequences inserted between the rDNA promoter and terminator sequences of pMrl930-BH. […]

Pol I transcription [2] = assay: In vitro transcription: TIF-IA mutants restoring rDNA transcription of nuclear extract from density-arrested FM3A cells; type: biochemical, murine; conditions: S199 and S44 mutants; 30 and 60 ng
Description: (A) Transcriptional activity of TIF-IA mutants in vitro. FLAG-tagged wild-type TIF-IA and the indicated single or double point mutants were overexpressed in HEK293T cells, immunopurified, and 20 and 40 ng were assayed for their capability to restore rDNA transcriptional activity of nuclear extract from density-arrested FM3A cells. The amount and purity of TIF-IA were estimated on silver-stained SDS-polyacrylamide gels and Western blots (data not shown).
(A) Transcriptional activity of TIF-IAS199A and TIF-IAS199D in vitro. FLAG-tagged wild-type TIF-IA and the indicated mutants were immunopurified from HEK293T cells, and 30 and 60 ng were assayed for their capability to restore transcriptional activity of nuclear extract from density-arrested FM3A cells. The amount and purity of TIF-IA were estimated on silver-stained SDS-polyacrylamide gels (data not shown).
(B) Transcriptional activity of TIF-IAS44A in vitro. FLAG-tagged wild-type TIF-IA and the indicated mutant were assayed for their transcriptional activity in vitro.
Nuclear extracts were prepared from exponentially growing (8×10^5 cells/ml), density-arrested or PD98059-treated (CN Bioscience, Bad Soden, Germany) 40 μM, 0.5 hr) or rapamycin-treated FM3A cells (ATCC, Manassas, USA). 25 μl assays contained 50 ng of template DNA (pMr600/EcoRI), 30 μg nuclear extract proteins and 12 mM Hepes-KOH, [pH8.0], 0.1 mM EDTA, 5 mM MgCl2, 80 mM KCl, 10 mM creatine phosphate, 12% (v/v) glycerol, 0.66 mM each of ATP, GTP and CTP, 0.01 mM UTP and 0.5 μCi [α-^32P]UTP (5000 Ci/mmol). After incubation for 60 min at 30° C., RNA was extracted and analyzed on non-denaturing 5% polyacrylamide gels
TIF-IA was immunopurified from untransfected NIH3T3 cells or from HEK293T cells overexpressing FLAG-tagged TIF-IA. 4×10^6 cells were lysed in 0.8 ml IP buffer (20 mM Tris-HCl [pH 7.4], 200 mM NaCl, 2 mM EDTA, 2 mM EGTA, 1% Triton X-100, 0.5 mM PMSF, 1 μg/ml aprotinin, 5 μg/ml leupeptin and 1 μg/ml pepstatin A), centrifuged at 10,000 g for 30 min, and the supernatants were incubated for 4 hr at 4° C. with either 10 μg anti-TIF-IA antibodies bound to 20 μl protein G-agarose or with anti-FLAG (M2) agarose (Sigma-Aldrich Corp., Missouri, USA). The immunocomplexes were successively washed with buffer AM (20 mM Tris-HCl [pH 8.0], 5 mM MgCl2, 0.1 mM EDTA, 20% glycerol) containing 400 and 100 mM KCl, respectively. The amount and purity of TIF-IA was estimated on silver-stained polyacrylamide gels and similar amounts of bead-bound TIF-IA were used in in vitro transcription assays. GST fusion proteins were expressed in E. coli BL21(DE3) and purified on Glutathione-Sepharose 4B according to the manufacturer's instructions.
To assess the functional relevance of S633 and S649 phosphorylation on transcriptional activity, the respective S→A and S→D single or double point mutants were purified from transfected cells and assayed for their capability to rescue transcription of extracts from density-arrested cells. […] Thus, phosphorylation of TIF-IA at S649 and S633 is required for transcriptional activity.
Phosphorylation of peptide a should inhibit TIF-IA activity, while phosphorylation of peptide b, e.g. S44, should augment TIF-IA activity.

TIF-IB/SL1 = assay: Co-immunoprecipitation of TIF-IB/SL1 with TIF-IA mutants from HEK293T cells; type: binding, human
Description: (§1) (B) A mutant that mimics phosphorylation of TIF-IA at S199 fails to interact with Pol I and TIF-IB. FLAG-tagged wild-type TIF-IA or the indicated point mutants were overexpressed in HEK293T cells and immunoprecipitated from cell lysates with anti-FLAG antibodies (M2 agarose). Co-precipitated Pol I and TIF-IB/SL1 were visualized on Western blots with anti-RPA116 and anti-TAFI110 antibodies.
(§2) Immunoprecipitations were carried out from human cells overexpressing FLAG-tagged TIF-IA. Cells were lysed in IP buffer, cleared by centrifugation at 10,000×g for 30 min, and the supernatants were incubated for 4 hr at 4° C. with anti-FLAG (M2) agarose (Sigma). To analyze the interaction of TIF-IA with TIF-IB/SL1, the immunoprecipitates were washed with IP buffer and TIF-IB/SL1 was visualized on immunoblots with α-TAFI110 antibodies. To monitor the interaction of TIF-IA with Pol I, the immunoprecipitates were washed with IP buffer containing 600 mM NaCl and Pol I was analyzed on Western blots using antibodies against the second largest subunit of Pol I (RPA116) or PAF67 (Seither et al., J. Biol. Chem. 382 (2001), 1163-1170).
(§3) Given the importance of mTOR-mediated alterations in the phosphorylation pattern on TIF-IA activity, one could predict that either phosphorylation of S199, dephosphorylation of S44 or both regulate the interaction of TIF-IA with the Pol I transcription apparatus. It was therefore examined whether the S→A or S→D point mutant(s) were capable of interacting with Pol I and/or TIF-IB/SL1. For this, TIF-IA was precipitated from cells overexpressing either FLAG-tagged wild-type TIF-IA or the respective S199 and S44 mutant(s), and co-precipitated Pol I and TIF-IB/SL1 were visualized on Western blots.

Pol I = assay: Co-immunoprecipitation of Pol I with TIF-IA mutants from HEK293T cells; type: binding, human
Description: as §1, §2, §3

COC[C@@H]([C@H](O)[C@H](O)C(=O)NCC[C@H](C)c1nc(/C=C/C[C@@H]2O[C@]3(C[C@@H](O)[C@@H]2C)O[C@H]([C@H](C[C@H](O)[C@H](C)[C@H](O)[C@H](C)/C=C(C)/C(C)=C/C=C/C(C)=C\C#N)OC)[C@H](OP(=O)(O)O)C3(C)C)co1)N(C)C [calyculin A]
effect on inactivation of TIF-IA by rapamycin (TIF-IA): prevented inactivation of TIF-IA by rapamycin

C=C1[C@@H](O)[C@@H]2O[C@]3(CC[C@H](/C=C/[C@@H](C)[C@@H]4CC(C)=C[C@@]5(O[C@H](C[C@@](C)(O)C(=O)O)CC[C@H]5O)O4)O3)CC[C@H]2O[C@@H]1[C@@H](O)C[C@H](C)[C@H]1O[C@@]2(CCCCO2)CC[C@H]1C [okadaic acid]
effect on inactivation of TIF-IA by rapamycin (TIF-IA): prevented inactivation of TIF-IA by rapamycin

TIF-IAS44A: TIF-IA mutant, S44 mutated to alanine
transcription of the Pol I reporter (Pol I transcription [1]): inactive | capability to rescue transcription of extracts from density-arrested cells (Pol I transcription [2]): abolishment of transcriptional activity of TIF-IA | interaction with TIF-IB/SL1 (co-precipitated TAFI110) (TIF-IB/SL1): interacted with both Pol I and TIF-IB/SL1 | interaction with Pol I (co-precipitated RPA116) (Pol I): interacted with both Pol I and TIF-IB/SL1
